Experimental data reported in ChEMBL document CHEMBL5518208 (J Med Chem, 2024).

Assays:
Format in all cases: ADME, organism-based
[1] = Half life in male ICR mouse at 25 mg/kg, po measured upto 24 hrs by LC-MS/MS analysis; settings: in vivo
[2] = Observed MRT infinity in male ICR mouse at 5 mg/kg, iv measured upto 24 hrs by LC-MS/MS analysis; settings: in vivo
[3] = Observed clearance in male ICR mouse at 5 mg/kg, iv measured upto 24 hrs by LC-MS/MS analysis; settings: in vivo
[4] = Drug concentration in BALB/c mouse plasma at 100 mg/kg, sc measured after 1 hrs by LC-MS/MS analysis
[5] = Cmax in male ICR mouse at 25 mg/kg, po measured upto 24 hrs by LC-MS/MS analysis; settings: in vivo
[6] = Observed AUC infinity in male ICR mouse at 5 mg/kg, iv measured upto 24 hrs by LC-MS/MS analysis; settings: in vivo
[7] = AUC last in male ICR mouse at 25 mg/kg, po measured upto 24 hrs by LC-MS/MS analysis; settings: in vivo
[8] = Observed AUC infinity in male ICR mouse at 25 mg/kg, po measured upto 24 hrs by LC-MS/MS analysis; settings: in vivo
[9] = Drug concentration in BALB/c mouse plasma at 100 mg/kg, sc measured after 4 hrs by LC-MS/MS analysis
[10] = Observed MRT infinity in male ICR mouse at 25 mg/kg, po measured upto 24 hrs by LC-MS/MS analysis; settings: in vivo
[11] = Half life in male ICR mouse at 5 mg/kg, iv measured upto 24 hrs by LC-MS/MS analysis; settings: in vivo
[12] = Observed volume of distribution at steady state in male ICR mouse at 5 mg/kg, iv measured upto 24 hrs by LC-MS/MS analysis; settings: in vivo, read-out: Vdss
[13] = Drug concentration in BALB/c mouse plasma at 100 mg/kg, sc measured after 0.5 hrs by LC-MS/MS analysis
[14] = Drug concentration in BALB/c mouse plasma at 100 mg/kg, sc measured after 2 hrs by LC-MS/MS analysis
[15] = Tmax in male ICR mouse at 25 mg/kg, po measured upto 24 hrs by LC-MS/MS analysis; settings: in vivo
[16] = AUC last in male ICR mouse at 5 mg/kg, iv measured upto 24 hrs by LC-MS/MS analysis; settings: in vivo

## O=c1ccc2c(N3C[C@@H]4[C@@H](CCP(=O)(O)O)[C@@H]4C3)ncnc2[nH]1
[1]
  half-life: 33.6 min
[2]
  MRT inf: 18.6 min
[3]
  clearance: 21.6 mL/min/kg
[4]
  concentration at 1 h: 26 µM
[5]
  Cmax: 352 ng/mL
[6]
  AUC(0-inf): 4400 ng·h/mL
[7]
  AUC(0-t) at 24 h: 932 ng·h/mL
[8]
  AUC(0-inf): 965 ng·h/mL
[9]
  concentration at 4 h: 0.04 µM
[10]
  MRT inf: 156 min
[11]
  half-life: 60.6 min
[12]
  Vd: 0.373 L/kg
[13]
  concentration at 0.5 h: 112 µM
[14]
  concentration at 2 h: 1.5 µM
[15]
  Tmax: 45 min
[16]
  AUC(0-t) at 24 h: 4390 ng·h/mL
